Measured values from patent US20100160314A1, “Small Molecule Inhibitors of Toll-Like Receptor 9” (priority 2006, published 2010).
Read-outs that look alike come from different tables or passages of the source.

Assays:
Assay type in all cases: cell-based
TLR8 = biological target: T1, TLR8 (Homo sapiens, UniProt Q9NR97); assay: Human PBMC, TNF-α release using ORN R-1362+DOTAP (TLR8 antagonism)
T1 construct: endogenous in cells; host or cells: freshly isolated human PBMC from donor buffy coats
T1 sequence (Q9NR97 27-1041): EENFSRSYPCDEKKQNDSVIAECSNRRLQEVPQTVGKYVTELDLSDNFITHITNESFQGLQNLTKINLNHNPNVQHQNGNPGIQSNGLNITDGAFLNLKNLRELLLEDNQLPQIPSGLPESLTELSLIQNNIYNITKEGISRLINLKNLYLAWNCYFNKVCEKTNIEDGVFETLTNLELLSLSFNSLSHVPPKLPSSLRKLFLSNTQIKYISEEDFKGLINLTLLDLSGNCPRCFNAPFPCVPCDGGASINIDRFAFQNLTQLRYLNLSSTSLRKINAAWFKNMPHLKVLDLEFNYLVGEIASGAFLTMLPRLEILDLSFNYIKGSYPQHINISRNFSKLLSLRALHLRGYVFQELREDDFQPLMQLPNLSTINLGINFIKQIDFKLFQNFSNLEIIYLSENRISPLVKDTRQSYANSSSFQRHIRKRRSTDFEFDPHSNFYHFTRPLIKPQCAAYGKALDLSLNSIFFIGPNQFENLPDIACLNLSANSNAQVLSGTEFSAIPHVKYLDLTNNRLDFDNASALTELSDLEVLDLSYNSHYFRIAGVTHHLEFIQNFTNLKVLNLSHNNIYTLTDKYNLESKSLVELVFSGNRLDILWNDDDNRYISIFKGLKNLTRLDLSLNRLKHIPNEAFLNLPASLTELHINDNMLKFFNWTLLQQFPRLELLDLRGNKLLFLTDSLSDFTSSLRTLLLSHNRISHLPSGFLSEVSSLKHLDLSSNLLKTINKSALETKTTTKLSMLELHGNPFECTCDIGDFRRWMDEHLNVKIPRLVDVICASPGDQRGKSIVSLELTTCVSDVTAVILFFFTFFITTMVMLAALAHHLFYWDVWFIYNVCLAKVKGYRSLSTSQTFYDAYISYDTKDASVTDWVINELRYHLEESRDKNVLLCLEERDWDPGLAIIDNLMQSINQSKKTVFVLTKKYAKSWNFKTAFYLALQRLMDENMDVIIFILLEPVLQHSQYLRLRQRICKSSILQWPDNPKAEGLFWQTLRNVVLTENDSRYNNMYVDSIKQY
Text: (§1) Peripheral blood mononuclear cell (PBMC) buffy coat preparations from healthy male and female human donors were obtained from the Institute for Hemostaseology and Transfusion Medicine of the University of Düsseldorf (Germany).
(§2) PBMC were purified by centrifugation over Ficoll-Hypaque (Sigma). Purified PBMC were washed twice with 1×PBS and resuspended in RPMI 1640 culture medium supplemented with 5% (v/v) heat-inactivated human AB serum (BioWhittaker, Belgium) or 10% (v/v) heat-inactivated fetal calf serum (FCS), 1.5 mM L-glutamine, 100 U/ml penicillin and […] streptomycin (all from Sigma, Deisenhofen, Germany).
(§3) Freshly isolated PBMC were resuspended at a concentration of 3×10^6/ml to 5×10^6/ml with RPMI 1640 culture medium and added to 96-well round-bottomed plates (150 μl/well) which had previously received nothing or selected concentrations (typically 10 μM-0.085 nM as 7-fold serial dilutions) of small molecule. To assay antagonist reaction for TLR9, 1 μM CpG oligodeoxynucleotide (ODN) 2395 ([…]; SEQ ID NO:3) was added to wells containing small molecules. To assay antagonist reaction for TLR7 and TLR8, 0.5 μM oligoribonucleotide (ORN) R-1362 ([…]; SEQ ID NO:4) complexed to 5 μg/ml DOTAP was added to wells containing small molecules. To calculate response to CpG ODN 2395 alone or ORN R-1362+DOTAP alone, wells without small molecules were stimulated with CpG ODN 2395 or ORN R-1362+DOTAP.
(§4) Cells were cultured in a humidified incubator at 37° C. for 16 h. Culture supernatants were then collected and, if not used immediately, frozen at −20° C. until required.
(§5) Amounts of cytokines in the supernatants were assessed using enzyme-linked immunosorbent assays (ELISA) specific for IFN-α or TNF-α using commercially available antibodies or kits from BD Pharmingen or Diaclone, respectively. IFN-α readout using CpG 2395 was used to measure TLR9 response. IFN-α readout using ORN R-1362+DOTAP was used to measure TLR7 response. TNF-α release using R-1362 complexed to DOTAP was used to measure TLR8-mediated immune response.

TLR9 = biological target: T2, TLR9 (Homo sapiens, UniProt Q9NR96); assay: Human PBMC, IFN-α readout using CpG ODN 2395 (TLR9 antagonism)
T2 construct: endogenous in cells; host or cells: freshly isolated human PBMC from donor buffy coats
T2 sequence (Q9NR96 26-1032): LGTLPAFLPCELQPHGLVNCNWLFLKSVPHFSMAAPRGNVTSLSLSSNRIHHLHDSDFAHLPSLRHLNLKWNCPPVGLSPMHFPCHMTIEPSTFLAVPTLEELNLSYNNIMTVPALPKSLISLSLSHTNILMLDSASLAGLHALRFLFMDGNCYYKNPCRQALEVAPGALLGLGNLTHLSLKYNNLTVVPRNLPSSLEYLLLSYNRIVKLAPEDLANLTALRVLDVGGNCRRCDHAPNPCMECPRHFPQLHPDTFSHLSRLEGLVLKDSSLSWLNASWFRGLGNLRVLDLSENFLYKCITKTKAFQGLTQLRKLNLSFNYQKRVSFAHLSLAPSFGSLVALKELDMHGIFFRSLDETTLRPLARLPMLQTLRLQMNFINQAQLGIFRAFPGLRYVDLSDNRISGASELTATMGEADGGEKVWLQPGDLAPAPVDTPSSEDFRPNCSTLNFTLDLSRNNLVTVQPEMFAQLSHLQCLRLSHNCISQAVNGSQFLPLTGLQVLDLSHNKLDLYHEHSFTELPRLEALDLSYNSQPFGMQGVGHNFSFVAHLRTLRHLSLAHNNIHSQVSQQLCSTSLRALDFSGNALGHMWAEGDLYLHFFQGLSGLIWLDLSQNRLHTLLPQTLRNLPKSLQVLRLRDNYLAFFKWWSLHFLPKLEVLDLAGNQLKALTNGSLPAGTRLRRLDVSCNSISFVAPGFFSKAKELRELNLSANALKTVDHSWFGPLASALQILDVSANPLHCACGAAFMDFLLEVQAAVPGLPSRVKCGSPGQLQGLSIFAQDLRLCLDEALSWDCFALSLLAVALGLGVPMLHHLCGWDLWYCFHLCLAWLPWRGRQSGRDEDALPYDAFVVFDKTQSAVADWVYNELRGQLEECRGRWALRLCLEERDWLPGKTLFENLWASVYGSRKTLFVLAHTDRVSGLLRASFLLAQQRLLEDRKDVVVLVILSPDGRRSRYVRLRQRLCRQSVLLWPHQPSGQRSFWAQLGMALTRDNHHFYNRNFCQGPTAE
Text: as §1, §2, §3, §4, §5

TLR7 = biological target: T3, TLR7 (Homo sapiens, UniProt Q9NYK1); assay: Human PBMC, IFN-α readout using ORN R-1362+DOTAP (TLR7 antagonism)
T3 construct: endogenous in cells; host or cells: freshly isolated human PBMC from donor buffy coats
T3 sequence (Q9NYK1 27-1049): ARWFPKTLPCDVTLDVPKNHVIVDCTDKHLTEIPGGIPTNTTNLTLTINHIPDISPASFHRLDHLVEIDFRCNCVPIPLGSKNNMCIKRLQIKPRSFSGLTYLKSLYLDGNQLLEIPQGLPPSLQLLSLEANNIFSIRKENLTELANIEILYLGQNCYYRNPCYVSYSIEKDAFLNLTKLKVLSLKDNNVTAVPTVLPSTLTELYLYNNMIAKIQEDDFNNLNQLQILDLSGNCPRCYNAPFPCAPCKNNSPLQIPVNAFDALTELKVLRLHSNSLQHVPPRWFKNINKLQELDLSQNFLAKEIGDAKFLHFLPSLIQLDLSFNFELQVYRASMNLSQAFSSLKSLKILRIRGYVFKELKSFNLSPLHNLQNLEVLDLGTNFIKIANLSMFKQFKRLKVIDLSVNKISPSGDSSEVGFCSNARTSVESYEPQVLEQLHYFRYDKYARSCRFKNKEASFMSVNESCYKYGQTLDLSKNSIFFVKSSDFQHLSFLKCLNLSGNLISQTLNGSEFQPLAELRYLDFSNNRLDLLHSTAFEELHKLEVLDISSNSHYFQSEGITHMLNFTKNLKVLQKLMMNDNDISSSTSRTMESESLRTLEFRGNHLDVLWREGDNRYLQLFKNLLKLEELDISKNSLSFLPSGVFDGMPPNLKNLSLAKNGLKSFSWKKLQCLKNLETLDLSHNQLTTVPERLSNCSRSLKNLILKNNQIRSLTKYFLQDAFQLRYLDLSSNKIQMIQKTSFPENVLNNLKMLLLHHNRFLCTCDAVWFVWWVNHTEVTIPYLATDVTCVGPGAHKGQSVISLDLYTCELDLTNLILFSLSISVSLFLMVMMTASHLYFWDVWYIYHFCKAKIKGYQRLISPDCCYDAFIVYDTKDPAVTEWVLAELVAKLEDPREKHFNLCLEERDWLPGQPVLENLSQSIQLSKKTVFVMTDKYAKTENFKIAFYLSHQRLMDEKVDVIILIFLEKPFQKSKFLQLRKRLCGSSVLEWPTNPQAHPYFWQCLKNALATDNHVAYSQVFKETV
Text: as §1, §2, §3, §4, §5

[1] = in vitro testing as described in Example 63, read-out: TLR8 IC50, Experimental
[2] = in vitro testing as described in Example 63, read-out: TLR9 IC50, Experimental
[3] = in vitro testing as described in Example 63, read-out: TLR7 IC50, Experimental

SMILES | IC50 (TLR8; [1]) | IC50 (TLR9; [2]) | IC50 (TLR7; [3]) | IC50 (TLR8; human PBMC, 0.5 μM ORN R-1362 + 5 μg/ml DOTAP, 16 h, TNF-α ELISA, read-out: IC50 TLR8, Experimental) | IC50 (TLR9; human PBMC, 1 μM CpG ODN 2395, 16 h, IFN-α ELISA, read-out: IC50 TLR9, Experimental) | IC50 (TLR7; human PBMC, 0.5 μM ORN R-1362 + 5 μg/ml DOTAP, 16 h, IFN-α ELISA, read-out: IC50 TLR7, Experimental)
CN1CCN(c2ccc3nc(-c4ccccc4)cc(NCCN4CCOCC4)c3c2)CC1 [5 (DI)] | 28 nM | 72 nM | 75 nM |  |  | 
CN1CCN(c2ccc(-c3cc(NCCN4CCOCC4)c4ncccc4n3)cc2)CC1 [6 (A3I)] |  |  |  | 110 nM | 73 nM | 720 nM
CN1CCN(c2ccc(-c3cc(NCCN4CCOCC4)c4ncccc4n3)cc2)CC1 [6 (BIV)] | 100 nM | 44 nM | 70 nM |  |  | 
CN1CCN(c2cc(NCCN3CCOCC3)c3cc(-c4ccccc4)ccc3n2)CC1 [6 (CI)] | 600 nM | 200 nM | 200 nM |  |  | 
CN1CCN(c2ccc(-c3cc(NCCN4CCOCC4)c4ncccc4n3)cc2)CC1 [6 (CaI)] | 140 nM | 250 nM | 790 nM |  |  | 
CN1CCN(c2ccc3nc(-c4ccccc4)nc(NCCN4CCOCC4)c3c2)CC1 [Compound 8 (Example 72)] | 18 nM | 78 nM | 76 nM |  |  | 
